From article PMC9569578, “In Planta, In Vitro and In Silico Studies of Chiral N^6-Benzyladenine Derivatives: Discovery of Receptor-Specific S-Enantiomers with Cytokinin or Anticytokinin Activities” (International Journal of Molecular Sciences, 2022)

How the values were obtained:
Test in all cases: radioligand competition with 3H-isopentenyladenine, plant microsomes
Type in all cases: binding
Conditions in all cases: 1 µM compound vs 3H-iP (2 pmol per sample), membranes of N. benthamiana
[1] = biological target: T1, AHK2 (Arabidopsis thaliana, UniProt Q9C5U2)
T1 construct: receptor fused with GFP, transiently expressed in Nicotiana benthamiana leaves; microsomal membranes
T1 sequence (Q9C5U2 1-1176): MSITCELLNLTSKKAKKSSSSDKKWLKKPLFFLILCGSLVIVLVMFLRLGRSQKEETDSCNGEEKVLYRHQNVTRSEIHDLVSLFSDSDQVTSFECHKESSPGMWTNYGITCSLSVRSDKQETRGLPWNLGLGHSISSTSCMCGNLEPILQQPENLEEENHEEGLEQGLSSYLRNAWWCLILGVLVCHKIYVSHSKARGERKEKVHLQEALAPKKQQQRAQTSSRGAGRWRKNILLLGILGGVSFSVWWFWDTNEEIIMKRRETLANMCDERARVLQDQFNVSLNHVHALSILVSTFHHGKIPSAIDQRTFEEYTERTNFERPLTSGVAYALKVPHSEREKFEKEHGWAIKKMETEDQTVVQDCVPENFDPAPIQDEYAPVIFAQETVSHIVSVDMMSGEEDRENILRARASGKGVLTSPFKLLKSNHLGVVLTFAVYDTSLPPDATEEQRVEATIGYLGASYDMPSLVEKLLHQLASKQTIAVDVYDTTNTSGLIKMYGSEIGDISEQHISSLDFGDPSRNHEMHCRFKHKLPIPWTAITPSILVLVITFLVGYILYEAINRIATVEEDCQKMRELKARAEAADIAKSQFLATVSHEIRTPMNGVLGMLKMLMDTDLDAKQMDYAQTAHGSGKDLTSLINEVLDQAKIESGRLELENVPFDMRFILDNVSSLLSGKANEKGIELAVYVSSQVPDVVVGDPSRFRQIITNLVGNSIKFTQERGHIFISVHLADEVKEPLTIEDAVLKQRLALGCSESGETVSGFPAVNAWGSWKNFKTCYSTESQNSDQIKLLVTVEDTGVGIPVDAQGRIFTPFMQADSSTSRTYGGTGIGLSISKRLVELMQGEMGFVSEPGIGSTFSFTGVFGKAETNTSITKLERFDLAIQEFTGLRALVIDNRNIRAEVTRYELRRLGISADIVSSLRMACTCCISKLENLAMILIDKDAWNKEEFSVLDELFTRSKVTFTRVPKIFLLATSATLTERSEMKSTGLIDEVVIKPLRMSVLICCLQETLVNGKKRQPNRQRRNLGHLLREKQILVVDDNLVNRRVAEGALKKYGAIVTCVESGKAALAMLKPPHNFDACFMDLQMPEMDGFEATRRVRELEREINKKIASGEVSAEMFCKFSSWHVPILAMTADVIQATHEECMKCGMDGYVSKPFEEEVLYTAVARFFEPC
Excerpt: radioligand competition with 3H-isopentenyladenine, plant microsomes on AHK2

[2] = biological target: T2, AHK3 (Arabidopsis thaliana, UniProt Q9C5U1)
T2 construct: receptor fused with GFP, transiently expressed in Nicotiana benthamiana leaves; microsomal membranes
T2 sequence (Q9C5U1 1-1036): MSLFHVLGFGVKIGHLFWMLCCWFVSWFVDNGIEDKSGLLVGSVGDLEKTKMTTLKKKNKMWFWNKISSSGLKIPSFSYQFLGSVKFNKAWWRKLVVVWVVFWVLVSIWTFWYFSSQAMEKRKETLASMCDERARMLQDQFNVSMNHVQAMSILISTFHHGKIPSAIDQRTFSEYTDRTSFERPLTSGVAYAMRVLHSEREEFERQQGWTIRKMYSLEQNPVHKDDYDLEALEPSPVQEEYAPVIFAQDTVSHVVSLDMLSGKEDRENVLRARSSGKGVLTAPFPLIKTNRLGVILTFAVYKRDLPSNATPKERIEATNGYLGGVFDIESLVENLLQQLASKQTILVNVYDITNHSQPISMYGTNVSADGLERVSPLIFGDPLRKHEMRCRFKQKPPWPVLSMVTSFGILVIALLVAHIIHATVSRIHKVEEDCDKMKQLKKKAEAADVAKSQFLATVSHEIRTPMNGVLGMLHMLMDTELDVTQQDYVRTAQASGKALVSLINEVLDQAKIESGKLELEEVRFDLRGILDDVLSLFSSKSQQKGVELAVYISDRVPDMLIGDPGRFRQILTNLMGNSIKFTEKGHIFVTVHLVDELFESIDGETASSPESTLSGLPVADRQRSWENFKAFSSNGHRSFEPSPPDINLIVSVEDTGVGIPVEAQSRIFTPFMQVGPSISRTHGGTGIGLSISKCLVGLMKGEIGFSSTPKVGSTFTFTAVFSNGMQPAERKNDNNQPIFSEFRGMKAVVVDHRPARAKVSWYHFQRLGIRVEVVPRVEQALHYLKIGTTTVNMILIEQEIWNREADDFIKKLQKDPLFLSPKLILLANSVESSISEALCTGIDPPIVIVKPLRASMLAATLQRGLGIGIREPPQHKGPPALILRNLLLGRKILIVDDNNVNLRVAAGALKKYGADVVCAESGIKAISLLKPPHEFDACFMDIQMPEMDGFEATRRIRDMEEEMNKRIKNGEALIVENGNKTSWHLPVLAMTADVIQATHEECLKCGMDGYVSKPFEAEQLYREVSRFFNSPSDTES
Excerpt: radioligand competition with 3H-isopentenyladenine, plant microsomes on AHK3

[3] = biological target: T3, CRE1/AHK4 (Arabidopsis thaliana, UniProt Q9C5U0)
T3 construct: receptor fused with GFP, transiently expressed in Nicotiana benthamiana leaves; microsomal membranes
T3 sequence (Q9C5U0 whole entry, the tested form may be a part): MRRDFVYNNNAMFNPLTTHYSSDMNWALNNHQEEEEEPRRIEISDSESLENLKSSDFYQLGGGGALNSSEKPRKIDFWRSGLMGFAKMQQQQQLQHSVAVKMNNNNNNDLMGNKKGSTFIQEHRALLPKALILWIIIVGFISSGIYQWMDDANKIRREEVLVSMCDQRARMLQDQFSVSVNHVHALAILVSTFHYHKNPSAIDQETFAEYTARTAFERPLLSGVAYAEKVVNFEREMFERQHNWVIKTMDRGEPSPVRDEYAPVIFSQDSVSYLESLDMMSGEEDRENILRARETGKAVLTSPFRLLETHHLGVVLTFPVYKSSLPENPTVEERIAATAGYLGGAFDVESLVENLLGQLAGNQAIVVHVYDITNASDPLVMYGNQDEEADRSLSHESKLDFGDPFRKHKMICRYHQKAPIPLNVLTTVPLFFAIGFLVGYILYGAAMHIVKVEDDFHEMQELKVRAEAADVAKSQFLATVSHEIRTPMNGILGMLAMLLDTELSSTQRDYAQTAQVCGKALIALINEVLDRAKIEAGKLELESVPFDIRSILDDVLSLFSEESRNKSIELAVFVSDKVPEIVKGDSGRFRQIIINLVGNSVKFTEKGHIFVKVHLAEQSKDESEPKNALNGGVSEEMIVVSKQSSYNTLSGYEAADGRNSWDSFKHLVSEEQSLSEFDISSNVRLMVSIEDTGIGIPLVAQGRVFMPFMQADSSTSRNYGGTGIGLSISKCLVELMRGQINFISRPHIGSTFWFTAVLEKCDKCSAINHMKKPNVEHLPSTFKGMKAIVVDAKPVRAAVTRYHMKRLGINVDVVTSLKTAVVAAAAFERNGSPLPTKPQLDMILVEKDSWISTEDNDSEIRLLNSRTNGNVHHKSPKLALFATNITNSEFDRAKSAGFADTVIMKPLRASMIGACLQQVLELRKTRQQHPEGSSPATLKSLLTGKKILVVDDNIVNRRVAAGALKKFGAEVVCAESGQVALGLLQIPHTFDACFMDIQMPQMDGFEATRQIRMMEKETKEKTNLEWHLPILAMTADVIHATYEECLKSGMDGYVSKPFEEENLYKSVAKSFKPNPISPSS
Excerpt: radioligand competition with 3H-isopentenyladenine, plant microsomes on CRE1/AHK4

| АНК2 / 1 μM [1] [%] | АНК3 / 1 μM [2] [%] | CRE1/AHK4 / 1 μM [3] [%] | SMILES |
| --- | --- | --- | --- |
| 92.1 ± 1.0 | 99.8 ± 1.5 | 97.2 ± 0.9 | C[C@@H](Nc1nc(F)nc2[nH]cnc12)c1ccccc1 [6a, 2-fluoro,N^6-((R)-α-methylbenzyl) adenine] |
| 8.9 ± 4.9 | 46.5 ± 2.2 | – | C[C@H](Nc1ncnc2[nH]cnc12)c1ccccc1 [5b, N^6-((S)-α-methylbenzyl) adenine] |
| 58.8 ± 1.3 | 54.7 ± 1.1 | 30.4 ± 1.0 | C[C@@H](Nc1nc(N)nc2[nH]cnc12)c1ccccc1 [8a, 2-amino,N^6-((R)-α-methylbenzyl) adenine] |
| 3.1 ± 0.4 | 80.6 ± 1.5 | 37.1 ± 1.2 | C[C@H](Nc1nc(Cl)nc2[nH]cnc12)c1ccccc1 [7b, 2-chloro,N^6-((S)-α-methylbenzyl) adenine] |
| 8.7 ± 0.9 | 74.7 ± 1.7 | 45.8 ± 0.3 | C[C@H](Nc1nc(F)nc2nc[nH]c12)c1ccccc1 [6b, 2-fluoro,N^6-((S)-α-methylbenzyl) adenine] |
| 42.6 ± 0.4 | 88.9 ± 0.7 | 74.1 ± 1.6 | C[C@@H](Nc1nc(Cl)nc2[nH]cnc12)c1ccccc1 [7a, 2-chloro,N^6-((R)-α-methylbenzyl) adenine] |
| 88.9 ± 0.5 | 97.7 ± 1.0 | 87.7 ± 1.0 | C[C@@H](Nc1ncnc2[nH]cnc12)c1ccccc1 [5a, N^6-((R)-α-methylbenzyl) adenine] |
